These results are taken from US10898469B2, “Imidazolylamide derivative” (Sumitomo Dainippon Pharma Co., Ltd., priority 2016, dated 2021).

Assay type in all cases: cell-based, human
Assay [1] has as its system HCT-116 cells. As to the kind of experiment: Inhibition test for sphere-forming ability of cancer cells in the presence of BSA (Test Example 2), HCT-116. To be noted: for IC50: HCT-116 cells, in the presence of 5% BSA, cultured 4 days; for inhibitory effect on the sphere-forming ability of cancer cells: Test Example 2, in the presence of 5% BSA, summary in words, cell line not given (HCT-116, HT-29, FaDu tested). On the procedure:
(§1) Human colorectal cancer-derived HCT-116 cells, human colon-adenocarcinoma-derived HT-29 cells, and human pharyngeal cancer-derived FaDu cells were available from American Type Culture Collection (ATCC). HCT-116 cells and HT-29 cells were cultured at 37° C. under 5% CO2 using the McCoy's 5a medium containing 10% fetal bovine serum (FBS) and 1% penicillin/streptomycin, and FaDu cells were cultured at 37° C. under 5% CO2 using the MEM medium containing 10% FBS, 1% non-essential amino acid, 1% sodium pyruvate, 5% bovine serum albumin (BSA), and 1% penicillin/streptomycin. HCT-116 cells, HT-29 cells, and FaDu cells were seeded in a 384 Well Black Clear Bottom Ultra-Low Attachment Microplate (Corning Cat. No. 3827) in an amount of 350-800 cells/well using the DMEM/F12 medium containing 2% B27 supplement (GIBCO), 20 ng/mL epidermal growth factor (EGF) (peprotech), 10 ng/mL basic fibroblast growth factor (bFGF) (peprotech), 5 μg/mL insulin (Sigma), 5% bovine serum albumin (BSA), and 1% penicillin/streptomycin. Each test compound was added into each well to adjust the final concentration of DMSO to 0.1%, and the cells were cultured for 4 days. The number of viable cells in each well was then measured with CellTiter-Glo® Luminescent Cell Viability Assay (Promega) to calculate the concentration of each test compound for 50% inhibition of cell proliferation (Sphere IC50 value; μmol/L).
(§2) The experiment of Test Example 2 was performed for each compound of each Example.
(§3) The concentration of each test compound for 50% inhibition of cell proliferation (Sphere IC50 value; μmol/L) is shown in the following Table.

Assay [2] relates to HT-29 cells. As to the kind of experiment: Inhibition test for sphere-forming ability of cancer cells in the presence of BSA (Test Example 2), HT-29. As to conditions: in the presence of 5% BSA, cultured 4 days. How it is done:
as §1, §2, §3

Assay [3] relates to HT-29 cells. The assay can be described thus: Inhibition test for sphere-forming ability of cancer cells (Test Example 1), HT-29. As to conditions: concentration for 50% inhibition of cell proliferation, read-out: IC50 (μmol/L) HT-29 (Sphere IC50 value). The essentials:
(§4)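 HCT-116, HT-29 and FaDu cells seeded at 350-800 cells/well on ultra-low attachment plates in serum-free DMEM/F12 with B27, 20 ng/mL EGF, 10 ng/mL bFGF and 5 μg/mL insulin. Compound given at 0.1% DMSO for 4 days; viable cells measured by CellTiter-Glo to give Sphere IC50 (μmol/L).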

In assay [4] the test system is HCT-116 cells. The assay can be described thus: Inhibition test for sphere-forming ability of cancer cells (Test Example 1), HCT-116. To be noted: for IC50: HCT-116 cells, concentration for 50% inhibition of cell proliferation, read-out: IC50 (μmol/L) HCT-116 (Sphere IC50 value); for inhibitory effect on the sphere-forming ability of cancer cells: Test Example 1, summary in words, cell line not given (HCT-116, HT-29, FaDu tested). The method in brief:
as §4

As to `O=C(Nc1cn(Cc2cccc(Cl)c2)cn1)c1cnc2ccccc2c1` [Example 138], the IC50 is > 10000 nM in the assay with HCT-116 cells [1], 6140 nM in the assay with HT-29 cells [2], 0.2 µmol/L with HT-29 cells [3] and 0.1 µmol/L in the assay on HCT-116 cells [4]. Further, in the assay with HCT-116 cells [4], the “inhibitory effect on the sphere-forming ability of cancer cells” value (shortened to “inhibitory effect”) was “particularly potent inhibitory effect”.
With `COC(=O)c1ccc(OCC(=O)Nc2cn(Cc3cc(F)c(F)c(F)c3)cn2)cn1` [Example 132, Methyl 5-(2-oxo-2-{[1-(3,4,5-trifluorobenzyl)-1H-imidazol-4-yl]amino}ethoxy)picolinate], the IC50 in the assay on HCT-116 cells [1] (Homo sapiens, HCT-116, 96 h) was > 10000 nM; in the assay on HT-29 cells [2] (Homo sapiens, 96 h) it was 6460 nM; with HT-29 cells [3] (Homo sapiens) it was 6.37 µmol/L; with HCT-116 cells [4] (Homo sapiens) it was 8.22 µmol/L.
Turning to `Cc1ccc2cc(NC(=O)c3cn(Cc4cc(F)c(F)c(F)c4)cn3)ccc2n1` [Example 252], the IC50 in the assay on HCT-116 cells [1] is 80 nM; with HT-29 cells [2], 50 nM; in the assay with HT-29 cells [3], < 0.01 µmol/L; in the assay on HCT-116 cells [4], 0.03 µmol/L. For the same compound, the “inhibitory effect” value in the assay with HCT-116 cells [1] and in the assay on HCT-116 cells [4] was “particularly potent inhibitory effect” throughout.
As to `O=C(Nc1cn(Cc2cccc(C(F)(F)F)c2)cn1)c1cncnc1` [Example 180], the IC50 with HCT-116 cells [1] was > 10000 nM; with HT-29 cells [2], 4930 nM; in the assay on HT-29 cells [3] it was 0.76 µmol/L; in the assay on HCT-116 cells [4], 8.73 µmol/L.
As to `O=C(Nc1cccnc1)c1cn(Cc2cccc(Cl)c2)cn1` [Example 264], the IC50 is > 10000 nM with HCT-116 cells [1], 6270 nM in the assay on HT-29 cells [2], 6.04 µmol/L with HT-29 cells [3] and 8.49 µmol/L in the assay on HCT-116 cells [4].
Take `COc1cc(C(=O)Nc2cn(Cc3cccc(C(F)(F)F)c3)cn2)cnc1Cl` [Example 228]: the IC50 in the assay with HCT-116 cells [1] is > 10000 nM; in the assay with HT-29 cells [2], 4880 nM; with HT-29 cells [3] it was 4.17 µmol/L; in the assay on HCT-116 cells [4] it was 6.39 µmol/L.
Turning to `O=C(Nc1cn(Cc2cccc(C(F)(F)F)c2)cn1)c1ccc2cnccc2n1` [Example 193], the IC50 came out at 600 nM in the assay with HCT-116 cells [1], 610 nM in the assay with HT-29 cells [2], 0.06 µmol/L in the assay on HT-29 cells [3] and 0.07 µmol/L in the assay on HCT-116 cells [4]. Further, in the assay on HCT-116 cells [4], the “inhibitory effect” value was “particularly potent inhibitory effect”.
For `O=C(Nc1cn(Cc2cccc(Cl)c2)cn1)c1ccc2cnccc2c1` [Example 191], the IC50 with HCT-116 cells [1] was 690 nM; in the assay on HT-29 cells [2], 530 nM; with HT-29 cells [3], 0.09 µmol/L; in the assay on HCT-116 cells [4], 0.31 µmol/L. Also, the “inhibitory effect” value with HCT-116 cells [4] was “particularly potent inhibitory effect”.
Consider `O=C(Nc1cn(Cc2cccc(C(F)(F)F)c2)cn1)c1cnc2cnccc2c1` [Example 192], for which the IC50 in the assay on HCT-116 cells [1] was 70 nM; in the assay with HT-29 cells [2], 70 nM; in the assay on HT-29 cells [3] it was < 0.01 µmol/L; in the assay on HCT-116 cells [4] it was 0.05 µmol/L. Besides, the “inhibitory effect” value in the assay on HCT-116 cells [1] and in the assay with HCT-116 cells [4] was “particularly potent inhibitory effect” in each case.
For the compound `O=C(/C=C/c1cccnc1)Nc1cn(Cc2cc(F)c(F)c(F)c2)cn1` [Example 231], the IC50 with HCT-116 cells [1] (Homo sapiens, HCT-116, 96 h) is 700 nM; in the assay with HT-29 cells [2] (Homo sapiens, 96 h), 520 nM; with HT-29 cells [3] (Homo sapiens), 0.07 µmol/L; in the assay on HCT-116 cells [4] (Homo sapiens), 0.56 µmol/L. Also, in the assay with HCT-116 cells [4], the “inhibitory effect” value is on record as “particularly potent inhibitory effect”.
Turning to `O=C(Nc1ccc(CO)cc1)c1cn(Cc2cc(F)c(F)c(F)c2)cn1` [Example 253], the IC50 in the assay on HCT-116 cells [1] amounted to 570 nM; with HT-29 cells [2] it was 70 nM; in the assay on HT-29 cells [3] it was 0.08 µmol/L; in the assay with HCT-116 cells [4], 0.07 µmol/L. Besides, the “inhibitory effect” value with HCT-116 cells [1] and in the assay with HCT-116 cells [4] was “particularly potent inhibitory effect” throughout.
In the case of `O=C(Nc1cn(Cc2cccc(C(F)(F)F)c2)cn1)c1ccc(NCC(F)(F)F)nc1` [Example 249], the IC50 in the assay on HCT-116 cells [1] (Homo sapiens, HCT-116, 96 h) was determined as 2420 nM; with HT-29 cells [2] (Homo sapiens, 96 h) it was 490 nM; in the assay with HT-29 cells [3] (Homo sapiens), 0.29 µmol/L; with HCT-116 cells [4] (Homo sapiens) it was 0.49 µmol/L.
On the same counts, the results for `CC(=O)Nc1ccc(/C=C/C(=O)Nc2cn(Cc3cccc(C(F)(F)F)c3)cn2)nc1` [Example 230] are > 10000 nM, 5840 nM, 0.94 µmol/L and 6.02 µmol/L.
On the same counts, the results for `COc1ccc(C(=O)Nc2cn(Cc3cccc(Cl)c3)c(C)n2)cc1OC` [Example 102] are > 10000 nM, 5960 nM, 4.07 µmol/L and 7.87 µmol/L.
Consider `O=C(Nc1cn(Cc2cc(F)c(F)c(F)c2)cn1)c1ccc2cnccc2c1` [Example 190], for which the IC50 was 270 nM in the assay on HCT-116 cells [1], 60 nM with HT-29 cells [2], 0.06 µmol/L in the assay with HT-29 cells [3] and 0.06 µmol/L in the assay with HCT-116 cells [4]. Further, the “inhibitory effect” value in the assay with HCT-116 cells [4] is on record as “particularly potent inhibitory effect”.
In the case of `O=C(Nc1cn(Cc2cccc(C(F)(F)F)c2)cn1)c1cnc2ccccc2c1` [Example 181], the IC50 was 8000 nM with HCT-116 cells [1], 3310 nM with HT-29 cells [2], 0.19 µmol/L with HT-29 cells [3] and 0.77 µmol/L in the assay on HCT-116 cells [4].
On to `O=C(Nc1cn(Cc2cccc(C(F)(F)F)c2)cn1)c1ccc(NCCO)nc1` [Example 248, 6-[(2-Hydroxyethyl)amino]-N-{1-[3-(trifluoromethyl)benzyl]-1H-imidazol-4-yl}nicotinamide], for which the IC50 in the assay with HCT-116 cells [1] (Homo sapiens, HCT-116, 96 h) stood at 6500 nM; in the assay on HT-29 cells [2] (Homo sapiens, 96 h) it was 5130 nM; with HT-29 cells [3] (Homo sapiens), 0.83 µmol/L; with HCT-116 cells [4] (Homo sapiens), 1 µmol/L.
With `COC(=O)c1ccc(/C=C/C(=O)Nc2cn(Cc3cccc(C(F)(F)F)c3)cn2)cn1` [Example 131, Methyl 5-[(1E)-3-oxo-3-({1-[3-(trifluoromethyl)benzyl]-1H-imidazol-4-yl}amino)prop-1-en-1-yl]picolinate], the IC50 in the assay on HCT-116 cells [1] (Homo sapiens, HCT-116, 96 h) was 9210 nM; with HT-29 cells [2] (Homo sapiens, 96 h), 540 nM; in the assay with HT-29 cells [3] (Homo sapiens), 8.71 µmol/L; in the assay with HCT-116 cells [4] (Homo sapiens), > 10 µmol/L.
As to `O=C(Nc1cn(Cc2cccc(C(F)(F)F)c2)cn1)c1ccc2ncccc2c1` [Example 183], the IC50 is > 10000 nM in the assay with HCT-116 cells [1], 6400 nM in the assay with HT-29 cells [2], 0.29 µmol/L in the assay on HT-29 cells [3] and 0.94 µmol/L in the assay with HCT-116 cells [4].
For the compound `O=C(Nc1cn(Cc2cccc(C(F)(F)F)c2)cn1)c1ccc2cnccc2c1` [Example 186], the IC50 came to 560 nM with HCT-116 cells [1], 100 nM in the assay on HT-29 cells [2], 0.05 µmol/L with HT-29 cells [3] and 0.08 µmol/L in the assay on HCT-116 cells [4]. In addition, the “inhibitory effect” value in the assay on HCT-116 cells [1] and with HCT-116 cells [4] was “particularly potent inhibitory effect” in each case.
On to `C=Cc1ncc(C(=O)Nc2cn(Cc3cccc(C(F)(F)F)c3)cn2)cc1OC` [Example 100], for which the IC50 with HCT-116 cells [1] (Homo sapiens, HCT-116, 96 h) came out at 8380 nM; in the assay with HT-29 cells [2] (Homo sapiens, 96 h) it was 6330 nM; in the assay with HT-29 cells [3] (Homo sapiens), 1.96 µmol/L; in the assay on HCT-116 cells [4] (Homo sapiens) it was 6.63 µmol/L.
On to `O=C(Nc1cn(Cc2cccc(C(F)(F)F)c2)cn1)c1cnc2ncccc2c1` [Example 188], for which the IC50 turned out to be 5540 nM with HCT-116 cells [1], 850 nM in the assay on HT-29 cells [2], 0.63 µmol/L in the assay with HT-29 cells [3] and 0.72 µmol/L with HCT-116 cells [4].
`O=C(Nc1cn(Cc2cccc(Cl)c2)cn1)c1ccc2ncccc2c1` [Example 137]: the IC50 in the assay with HCT-116 cells [1] was > 10000 nM; with HT-29 cells [2], 6130 nM; in the assay with HT-29 cells [3], 0.57 µmol/L; in the assay with HCT-116 cells [4], 0.81 µmol/L.
On to `O=C(Nc1cn(Cc2cccc(C(F)(F)F)c2)cn1)c1ccncn1` [Example 179], for which the IC50 is 5960 nM with HCT-116 cells [1], 5760 nM in the assay on HT-29 cells [2], 4.65 µmol/L with HT-29 cells [3] and 2.91 µmol/L with HCT-116 cells [4].
Take `COc1ccc(NC(=O)c2cn(Cc3cccc(Cl)c3)cn2)cc1OC` [Example 262]: the IC50 in the assay on HCT-116 cells [1] was determined as 6050 nM; in the assay on HT-29 cells [2], 720 nM; with HT-29 cells [3], 0.6 µmol/L; with HCT-116 cells [4] it was 0.83 µmol/L.
